In ChEMBL document CHEMBL4118102 (J Med Chem, 2018):

Assays:
[1] = target: T1, Neuraminidase (Influenza A virus, UniProt A5Z252); design: species or system Influenza A virus (A/chicken/Bangli/BBVD-563/2007(H5N1)), clade 2
[2] = target: T1, Neuraminidase; design: species or system Influenza A virus (A/chicken/Bangli/BBVD-563/2007(H5N1)), clade 2; remark: listed apart in the source
[3] = target: T2, Neuraminidase (Influenza B virus, UniProt Q3S340); design: species or system Influenza B virus (B/Perth/211/2001)
[4] = target: T2, Neuraminidase; design: species or system Influenza B virus (B/Perth/211/2001); remark: listed apart in the source
[5] = tested on: Influenza A virus; assay: Antiviral activity against Influenza A virus (A/Mississippi/03/01 (H1N1)) infected in MDCK cells assessed as reduction in plaque formation measured after 3 days post infection by neutral red staining-based assay; type: functional, organism-based; conditions: 72 h
[6] = tested on: Influenza A virus; assay: Antiviral activity against Influenza A virus (A/Fukui/45/04(H3N2)) infected in MDCK cells assessed as reduction in plaque formation measured after 3 days post infection by neutral red staining-based assay; type: functional, organism-based, Influenza A virus (A/Fukui/45/2004(H3N2)); conditions: 72 h
[7] = tested on: Influenza A virus; assay: Antiviral activity against Influenza A virus (A/Victoria/503/06) infected in MDCK cells assessed as reduction in plaque formation measured after 3 days post infection by neutral red staining-based assay; type: functional, organism-based
[8] = tested on: Influenza B virus; assay: Antiviral activity against Influenza B virus (B/Perth/211/2001) infected in MDCK cells assessed as reduction in plaque formation measured after 3 days post infection by neutral red staining-based assay; type: functional, organism-based; conditions: 72 h
[9] = target: Neuraminidase (Influenza A virus) (UniProt B4URF0); conditions: A/Mississippi/03/01 (H1N1)
[10] = target: Neuraminidase (Influenza A virus) (UniProt B4URF0); conditions: A/swine/Shepparton/6/2009 (H1N1)
[11] = target: Neuraminidase (Influenza A virus) (UniProt B4URF0); conditions: A/chicken/Vietnam/08/2004 (H5N1) clade 1
[12] = target: Neuraminidase (Influenza A virus) (UniProt A5Z252); conditions: Influenza A virus (A/chicken/Bangli/BBVD-563/2007(H5N1)); clade 2
[13] = target: Neuraminidase (Influenza A virus (A/Memphis/1/1971(H3N2))) (UniProt P03471); conditions: Influenza A virus (A/Fukui/45/2004(H3N2))
[14] = target: Neuraminidase (Influenza B virus) (UniProt Q3S340); conditions: Influenza B virus (B/Perth/211/2001)
[15] = target: T3, Neuraminidase (Influenza A virus, UniProt B4URF0)
[16] = target: Neuraminidase (Influenza A virus (A/Memphis/1/1971(H3N2)), UniProt P03471); design: species or system Influenza A virus (A/Fukui/45/2004(H3N2))
[17] = target: Neuraminidase (Influenza A virus (A/Memphis/1/1971(H3N2)), UniProt P03471); design: species or system Influenza A virus (A/Fukui/45/2004(H3N2)); remark: listed apart in the source
[18] = target: T3, Neuraminidase; remark: listed apart in the source
[19] = target: T3, Neuraminidase; remark: listed apart in the source
[20] = target: T3, Neuraminidase; remark: listed apart in the source
[21] = target: T3, Neuraminidase; remark: listed apart in the source
[22] = target: T3, Neuraminidase; remark: listed apart in the source
[23] = target: T3, Neuraminidase; remark: listed apart in the source
[24] = target: T3, Neuraminidase; remark: listed apart in the source
[25] = Influenza A virus, A/Victoria/503/06, MDCK, 72 h

Chain of Neuraminidase (Influenza A virus (A/Memphis/1/1971(H3N2))) (P03471 whole entry): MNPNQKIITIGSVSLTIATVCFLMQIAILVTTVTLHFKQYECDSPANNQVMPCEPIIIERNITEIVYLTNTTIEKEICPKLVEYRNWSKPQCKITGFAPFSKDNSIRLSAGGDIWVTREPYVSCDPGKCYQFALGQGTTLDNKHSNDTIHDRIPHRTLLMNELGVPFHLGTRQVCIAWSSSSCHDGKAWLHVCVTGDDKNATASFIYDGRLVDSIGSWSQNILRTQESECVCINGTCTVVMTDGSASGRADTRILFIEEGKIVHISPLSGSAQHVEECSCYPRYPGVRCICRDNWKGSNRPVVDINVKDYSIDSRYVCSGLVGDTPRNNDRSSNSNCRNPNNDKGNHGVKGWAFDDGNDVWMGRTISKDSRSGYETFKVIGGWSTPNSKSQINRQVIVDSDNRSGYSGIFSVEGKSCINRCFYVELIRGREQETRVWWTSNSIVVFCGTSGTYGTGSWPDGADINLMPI
Chain of Neuraminidase (Influenza A virus (A/Memphis/1/1971(H3N2)), UniProt P03471) (P03471 whole entry): as above
Chain of Neuraminidase (Influenza B virus) (Q3S340 as listed by the source): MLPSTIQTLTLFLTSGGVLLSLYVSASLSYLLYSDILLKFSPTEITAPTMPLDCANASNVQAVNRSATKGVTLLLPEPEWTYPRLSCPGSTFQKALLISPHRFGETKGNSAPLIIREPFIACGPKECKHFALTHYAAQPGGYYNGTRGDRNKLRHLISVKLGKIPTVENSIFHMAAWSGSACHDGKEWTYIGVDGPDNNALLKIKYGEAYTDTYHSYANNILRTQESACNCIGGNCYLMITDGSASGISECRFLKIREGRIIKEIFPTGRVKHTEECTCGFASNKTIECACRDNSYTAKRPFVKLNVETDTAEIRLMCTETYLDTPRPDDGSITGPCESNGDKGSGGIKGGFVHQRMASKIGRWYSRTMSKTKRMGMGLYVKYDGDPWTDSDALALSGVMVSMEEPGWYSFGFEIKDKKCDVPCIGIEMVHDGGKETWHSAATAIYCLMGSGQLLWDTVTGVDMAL
T2 sequence (Q3S340 whole entry): as the sequence (Q3S340 as listed by the source) above

## CC(=O)N[C@@H]1[C@@H](O)[C@@H](F)[C@](F)(C(=O)O)O[C@H]1[C@H](O)[C@H](O)CO
[1]
  IC50: 863 nM
[2]
  IC50: 889 nM
[3]
  IC50: 414 nM
[4]
  IC50: 65 nM
[5]
  EC50: 1000 nM
[6]
  EC50: 100000 nM
[7]; [25]
  EC50: 100000 nM
[8]
  EC50: 1000 nM
[9]
  T1/2: 24.8 min
[10]
  T1/2: 11.8 min
[11]
  T1/2: 12 min
[12]
  T1/2: 8.5 min
[13]
  T1/2: 17.6 min
[14]
  T1/2: 43.6 min

## CC(=O)N[C@@H]1[C@@H](O)[C@@H](F)[C@](F)(C(=O)O)O[C@H]1[C@H](O)[C@@H](C)O
[3]
  IC50: 9190 nM
[5]
  EC50: 10000 to 100000 nM
[7]; [25]
  EC50: ≥ 100000 nM
[8]
  EC50: 10000 to 100000 nM
[9]
  T1/2: 37.5 min
[10]
  T1/2: 24.5 min
[11]
  T1/2: 17.2 min
[12]
  T1/2: 16.9 min
[13]
  T1/2: 29.7 min
[14]
  T1/2: > 240 min

## CC(=O)N[C@@H]1[C@@H](O)[C@@H](F)[C@](F)(C(=O)O)O[C@H]1[C@H](O)CCO
[15]
  IC50: 2610 nM
[1]
  IC50: 24500 nM
[2]
  IC50: 28200 nM
[16]
  IC50: 28700 nM
[17]
  IC50: 5010 nM
[3]
  IC50: 7620 nM
[5]
  EC50: 10000 nM
[6]
  EC50: ≥ 100000 nM
[7]; [25]
  EC50: ≥ 100000 nM
[8]
  EC50: 10000 to 100000 nM
[18]
  IC50: 8290 nM
[19]
  IC50: 25800 nM
[20]
  IC50: 22400 nM
[21]
  IC50: 25800 nM
[22]
  IC50: 22000 nM
[23]
  IC50: 21700 nM
[24]
  IC50: 17000 nM
[9]
  T1/2: 30.4 min
[10]
  T1/2: 17.8 min
[11]
  T1/2: 19.4 min
[12]
  T1/2: 23.6 min
[13]
  T1/2: 25.1 min
[14]
  T1/2: 186 min

## CC(=O)N[C@@H]1C[C@@H](F)[C@](F)(C(=O)O)O[C@H]1[C@H](O)[C@H](O)CO
[15]
  IC50: 69 nM
[1]
  IC50: 583 nM
[2]
  IC50: 535 nM
[16]
  IC50: 313 nM
[17]
  IC50: 318 nM
[3]
  IC50: 76 nM
[4]
  IC50: 27 nM
[5]
  EC50: 1000 nM
[6]
  EC50: 100000 nM
[7]; [25]
  EC50: 10000 nM
[8]
  EC50: 1000 nM
[18]
  IC50: 48 nM
[19]
  IC50: 428 nM
[20]
  IC50: 490 nM
[21]
  IC50: 474 nM
[22]
  IC50: 490 nM
[23]
  IC50: 985 nM
[24]
  IC50: 1400 nM
[9]
  T1/2: 26.7 min
[10]
  T1/2: 11.6 min
[11]
  T1/2: 13.7 min
[12]
  T1/2: 10.6 min
[13]
  T1/2: 13.4 min
[14]
  T1/2: 29.2 min

## CC(=O)N[C@H]1[C@H]([C@H](O)[C@H](O)CO)OC(C(=O)O)=C[C@@H]1NC(=N)N [ZANAMIVIR]
[5]
  EC50: ≤ 1 nM
[6]
  EC50: 100 nM
[7]; [25]
  EC50: 0.1 to 1 nM
[8]
  EC50: 10 nM
[12]
  T1/2: 72.8 min

## CC(=O)N[C@@H]1[C@@H](O)[C@@H](F)[C@](F)(C(=O)O)O[C@H]1C[C@H](O)CO
[3]
  IC50: 228 nM
[4]
  IC50: 40 nM
[5]
  EC50: 100 to 1000 nM
[6]
  EC50: 10000 to 100000 nM
[7]; mdck
  EC50: 10000 nM
[8]
  EC50: 1000 to 10000 nM
[9]
  T1/2: 29.2 min
[10]
  T1/2: 15.8 min
[11]
  T1/2: 15 min
[12]
  T1/2: 12.3 min
[13]
  T1/2: 13.9 min
[14]
  T1/2: 68.7 min
